Results reported in ChEMBL document CHEMBL1212841, “Mycenaaurin A, an antibacterial polyene pigment from the fruiting bodies of Mycena aurantiomarginata” (2010).

System: Bacillus pumilus
Experiment: Antimicrobial activity Bacillus pumilus at 0.5 umol/disk by disk diffusion method
Type: functional

Question: For `CC(=O)N[C@@H](CCO[C@H](C)C/C=C/CC[C@@H](O)C/C=C/C=C/C=C/C=C/C=C/C=C/c1cc(O)c(CC[C@H](N)C(=O)O)c(=O)o1)C(=O)O` [MYCENAAURIN A], which “inhibition zone (IZ)” value is on record?
Answer: Its value is 2.5 cm.
